PubChem BioAssay (NCI)
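Tested at 5 concentrations; 48 h exposure; 96-well plates; endpoints linearly interpolated, else capped at highest concentration. GI50 marks 50% less growth. TGI: total growth inhibition.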

How the values were obtained:
Test in all cases: NCI-60 cell line screen, 48 h
PC-3 prostate = test system: PC-3 prostate
CAKI-1 renal = test system: CAKI-1 renal
UACC-62 melanoma = test system: UACC-62 melanoma
OVCAR-8 ovarian = test system: OVCAR-8 ovarian
HOP-92 NSCLC = test system: HOP-92 NSCLC
NCI-H23 lung = test system: NCI-H23 lung
MOLT-4 leukemia = test system: MOLT-4 leukemia
DU-145 prostate = test system: DU-145 prostate
UO-31 renal = test system: UO-31 renal
SK-MEL-5 melanoma = test system: SK-MEL-5 melanoma
786-0 renal = test system: 786-0 renal
HOP-62 NSCLC = test system: HOP-62 NSCLC
NCI-H226 lung = test system: NCI-H226 lung
MDA-MB-435 = test system: MDA-MB-435
LOX IMVI melanoma = test system: LOX IMVI melanoma
A498 renal = test system: A498 renal
OVCAR-5 ovarian = test system: OVCAR-5 ovarian
NCI/ADR-RES ovarian = test system: NCI/ADR-RES ovarian
NCI-H460 lung = test system: NCI-H460 lung
KM12 colon = test system: KM12 colon
U251 CNS = test system: U251 CNS
A549 NSCLC = test system: A549 NSCLC
SNB-75 CNS = test system: SNB-75 CNS
HCC-2998 colon = test system: HCC-2998 colon
OVCAR-3 ovarian = test system: OVCAR-3 ovarian
IGROV1 ovarian = test system: IGROV1 ovarian
T-47D breast = test system: T-47D breast
SW-620 colon = test system: SW-620 colon

Cc1ccc2c(n1)C(=O)C(Cl)=C(Nc1cc(C(F)(F)F)cc(C(F)(F)F)c1)C2=O
GI50 (PC-3 prostate): 5.29 µM
TGI (PC-3 prostate): 20 µM
GI50 (CAKI-1 renal): 1.5 µM
TGI (CAKI-1 renal): 2.94 µM
GI50 (UACC-62 melanoma): 4.97 µM
TGI (UACC-62 melanoma): 19.3 µM
GI50 (OVCAR-8 ovarian): 4.16 µM
TGI (OVCAR-8 ovarian): 24.2 µM
GI50 (HOP-92 NSCLC): 1.57 µM
TGI (HOP-92 NSCLC): 3.51 µM
GI50 (NCI-H23 lung): 1.92 µM
TGI (NCI-H23 lung): 4.94 µM
GI50 (MOLT-4 leukemia): 0.305 µM
TGI (MOLT-4 leukemia): 1.05 µM
GI50 (DU-145 prostate): 2.6 µM
TGI (DU-145 prostate): 6.47 µM
GI50 (UO-31 renal): 1.41 µM
TGI (UO-31 renal): 2.83 µM
GI50 (SK-MEL-5 melanoma): 3.28 µM
TGI (SK-MEL-5 melanoma): 11.4 µM
GI50 (786-0 renal): 1.72 µM
TGI (786-0 renal): 3.36 µM
GI50 (HOP-62 NSCLC): 15.9 µM
TGI (HOP-62 NSCLC): 31.3 µM
GI50 (NCI-H226 lung): 5.36 µM
TGI (NCI-H226 lung): 41.5 µM
GI50 (MDA-MB-435): 4.67 µM
TGI (MDA-MB-435): 16.4 µM
GI50 (LOX IMVI melanoma): 1.6 µM
TGI (LOX IMVI melanoma): 3.49 µM
GI50 (A498 renal): 8.72 µM
TGI (A498 renal): 22 µM
GI50 (OVCAR-5 ovarian): 19.4 µM
TGI (OVCAR-5 ovarian): 38.4 µM
GI50 (NCI/ADR-RES ovarian): 2.74 µM
TGI (NCI/ADR-RES ovarian): 8.6 µM
GI50 (NCI-H460 lung): 13.7 µM
TGI (NCI-H460 lung): 36.8 µM
GI50 (KM12 colon): 12.3 µM
TGI (KM12 colon): 28.9 µM
GI50 (U251 CNS): 10.3 µM
TGI (U251 CNS): 23.5 µM
GI50 (A549 NSCLC): 16.9 µM
TGI (A549 NSCLC): 38 µM
GI50 (SNB-75 CNS): 9.23 µM
TGI (SNB-75 CNS): 22.6 µM
GI50 (HCC-2998 colon): 4.61 µM
TGI (HCC-2998 colon): 18.2 µM
GI50 (OVCAR-3 ovarian): 1.61 µM
TGI (OVCAR-3 ovarian): 3.02 µM
GI50 (IGROV1 ovarian): 3.6 µM
TGI (IGROV1 ovarian): 14.1 µM
GI50 (T-47D breast): 1.63 µM
TGI (T-47D breast): 5.18 µM
GI50 (SW-620 colon): 2.29 µM
TGI (SW-620 colon): 5.32 µM
